Usually clearance stands for the volume of plasma or blood freed of the substance per unit of time. As usually defined, the IC50 is the midpoint of a concentration-inhibition curve.

Molecules are shown by their SMILES. Active and inactive are the calls of the source. The rule behind the calls is not given here. Bounds are passed on as bounds.

A short description of data set [1]: Clearance in Beagle dog plasma at 0.5 mg/kg, iv. It counts as ADME, organism-based, Canis lupus familiaris. Also noted: dose 0.5 mg/kg, route intravenous.
For the next data set, the system named is Mus musculus. As to the kind of experiment: Stimulation of hair growth in C3H/HeN mouse at 3% concentration administered for 5 days, bid per week for 4 weeks. It counts as functional, organism-based.
A further data set relates to Syrian golden hamster. As to the kind of experiment: Reduction in sebum production in syrian hamster ear model at 3% concentration administered for 5 days, bid per week for 2 weeks. It counts as functional, Mesocricetus auratus. Also noted: scale not given: the % may be the effect or the level left.
Data set [2] addresses T1, Androgen receptor (Homo sapiens, UniProt P10275).
T1 sequence (P10275 whole entry): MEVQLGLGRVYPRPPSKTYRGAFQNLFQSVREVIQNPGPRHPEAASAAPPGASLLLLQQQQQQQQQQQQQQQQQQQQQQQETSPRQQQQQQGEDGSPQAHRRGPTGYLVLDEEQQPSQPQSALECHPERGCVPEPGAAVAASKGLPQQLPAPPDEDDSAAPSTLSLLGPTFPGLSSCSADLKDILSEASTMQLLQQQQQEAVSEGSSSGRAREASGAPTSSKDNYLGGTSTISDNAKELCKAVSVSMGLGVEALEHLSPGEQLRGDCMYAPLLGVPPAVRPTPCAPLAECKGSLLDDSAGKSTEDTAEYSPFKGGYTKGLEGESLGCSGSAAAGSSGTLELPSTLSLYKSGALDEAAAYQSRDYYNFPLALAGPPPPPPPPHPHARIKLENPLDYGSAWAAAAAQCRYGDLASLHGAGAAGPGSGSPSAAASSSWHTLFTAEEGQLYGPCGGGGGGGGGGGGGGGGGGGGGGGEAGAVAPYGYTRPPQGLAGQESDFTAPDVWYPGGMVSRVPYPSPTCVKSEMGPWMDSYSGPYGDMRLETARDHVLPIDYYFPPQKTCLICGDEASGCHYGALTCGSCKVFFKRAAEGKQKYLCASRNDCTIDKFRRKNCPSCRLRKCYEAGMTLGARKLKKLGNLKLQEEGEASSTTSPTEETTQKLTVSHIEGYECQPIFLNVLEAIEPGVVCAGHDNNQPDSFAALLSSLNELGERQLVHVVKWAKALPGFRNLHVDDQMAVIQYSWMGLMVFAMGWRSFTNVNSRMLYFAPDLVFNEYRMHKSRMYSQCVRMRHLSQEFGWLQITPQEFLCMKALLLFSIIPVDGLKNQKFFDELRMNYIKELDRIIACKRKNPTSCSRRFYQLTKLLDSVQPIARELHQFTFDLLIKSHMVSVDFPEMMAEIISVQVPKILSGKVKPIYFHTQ
Description: Antagonist activity at human androgen receptor expressed in MDA-MB-453 cells

The target in data set [3] is T1, Androgen receptor. As to the kind of experiment: biochemical.
Description: Displacement of [3H]dihydrotestosterone from human androgen receptor expressed in Sf9 cells

`C[C@H](c1ccccc1)N(C)c1cc(C(F)(F)F)c(C#N)cn1` gave a clearance in data set [1] of 40 mL/min/kg. The result with Mus musculus was Active. The same compound came in with an Activity in the data set on Syrian golden hamster of 83%. Further, it took 45 nM to reach half-maximal inhibition against Androgen receptor [2] (IC50).

`CCCN(CCC)c1cc(C(F)(F)F)c(C#N)cn1`: the IC50 against Androgen receptor [2] was over 1000 nM; against Androgen receptor [3], 78 nM.

As for `CC1CCN(c2cc(C(F)(F)F)c(C#N)cn2)CC1`, the IC50 at Androgen receptor [2] came out at 136 nM; at Androgen receptor [3], 73 nM.

On Androgen receptor [3], `C[C@@H](c1ccccc1)N(C)c1cc(C(F)(F)F)c(C#N)cn1` gave an IC50 of 1700 nM.

Take `N#Cc1cnc(N2CCCCC2)cc1C(F)(F)F`: the values for the IC50 at Androgen receptor [2] and against Androgen receptor [3] were 422 nM and 209 nM, respectively.

Regarding `CCC(C)N(C)c1cc(C(F)(F)F)c(C#N)cn1` (stereo not drawn), the figures for the IC50 against Androgen receptor [2] and against Androgen receptor [3] were over 1000 nM and 7 nM, respectively.

On to `CC1(C)C(=O)N(c2ccc(C#N)c(C(F)(F)F)c2)C(=O)N1CCCCO` [RU-58841], for which, in the data set on Syrian golden hamster, the Activity stood at 92%.

As to `CC(c1ccccc1)N(C)c1cc(C(F)(F)F)c(C#N)cn1` (stereo not drawn), the IC50 on Androgen receptor [2] turned out to be 229 nM.

On Androgen receptor [3], `C[C@@H](Nc1cc(C(F)(F)F)c(C#N)cn1)c1ccccc1` had an IC50 of 4930 nM.

Regarding `N#Cc1cnc(N2CCC3CCCCC3C2)cc1C(F)(F)F` (stereo not drawn), the IC50 amounted to 260 nM against Androgen receptor [2] and 169 nM at Androgen receptor [3].

The values are drawn from ChEMBL document CHEMBL1139813, “Synthesis and biological evaluation of amino-pyridines as androgen receptor antagonists for stimulating hair growth and reducing sebum production” (Bioorg Med Chem Lett, 2007).
